In patent US8143290B2, “Chemical compounds 572” (AstraZeneca AB, priority 2006, dated 2012) one finds IC50 data, which are given here for twelve molecules.

This test deals with T1, recombinant human GR (Homo sapiens, UniProt P04150).
T1 construct: purchased Panvera/Invitrogen P2812 (kit P2893)
T1 sequence (P04150 1-777): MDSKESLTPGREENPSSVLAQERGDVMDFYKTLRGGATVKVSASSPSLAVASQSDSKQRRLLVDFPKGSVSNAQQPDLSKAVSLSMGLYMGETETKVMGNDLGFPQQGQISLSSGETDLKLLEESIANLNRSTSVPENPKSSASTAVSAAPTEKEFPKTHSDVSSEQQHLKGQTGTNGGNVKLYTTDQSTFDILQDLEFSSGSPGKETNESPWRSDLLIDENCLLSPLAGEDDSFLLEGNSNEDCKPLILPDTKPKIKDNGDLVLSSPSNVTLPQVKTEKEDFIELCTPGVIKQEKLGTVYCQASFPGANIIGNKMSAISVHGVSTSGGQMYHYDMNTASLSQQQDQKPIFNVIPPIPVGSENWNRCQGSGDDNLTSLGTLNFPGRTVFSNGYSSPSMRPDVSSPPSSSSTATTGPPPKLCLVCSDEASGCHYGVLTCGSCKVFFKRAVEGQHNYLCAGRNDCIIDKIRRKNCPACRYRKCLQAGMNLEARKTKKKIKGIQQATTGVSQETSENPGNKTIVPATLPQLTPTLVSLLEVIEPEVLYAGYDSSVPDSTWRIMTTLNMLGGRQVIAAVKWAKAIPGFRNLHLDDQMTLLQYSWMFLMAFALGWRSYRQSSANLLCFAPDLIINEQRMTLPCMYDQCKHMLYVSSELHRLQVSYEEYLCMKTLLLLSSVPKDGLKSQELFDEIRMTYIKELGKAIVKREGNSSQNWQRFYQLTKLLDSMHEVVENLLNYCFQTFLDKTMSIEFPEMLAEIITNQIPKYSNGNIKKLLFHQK
Kind of test: Human Glucocorticoid Receptor (GR) Assay, fluorescence polarization. It counts as binding. The settings on record: GS Red tracer, incubated 2 h at r.t., XLfit model 205, read-out: GRhuFL_FP_v2 Mean IC50. As to the method: Human Glucocorticoid Receptor (GR) Assay
The assay is based on a commercial kit from Panvera/Invitrogen (Part number P2893). The assay technology is fluorescence polarization. […] The GR and Stabilizing Peptide reagents are stored at −70° C. while the GS Red is stored at −20° C. Also included in the kit are 1M DTT (Panvera, Part number P2325, stored at −20° C.) and GR Screening buffer 10× (Panvera, Part number P2814, stored at −70° C. initially but once thawed stored at r.t.). Avoid repeated freeze/thaws for all reagents. The GR Screening buffer 10× comprises 100 mM potassium phosphate, 200 mM sodium molybdate, 1 mM EDTA and 20% DMSO.
0% control was 100% DMSO and 100% control was […] Dexamethasone. Background solution (8 μL; assay buffer 10×, Stabilizing Peptide, DTT and ice cold MQ water) was added to the background wells. GS Red solution (7 μL; assay buffer 10×, Stabilizing Peptide, DTT, GS Red and ice cold water) was added to all wells except background wells. GR solution (7 μL; assay buffer 10×, Stabilizing Peptide, DTT, GR and ice cold water) was added to all wells. The plate was sealed and incubated in a dark at r.t. for 2 h.
(In general: Fluorescence polarisation rises when a labelled molecule tumbles more slowly, as on binding a larger partner.)
Regarding `CCCc1ccc([C@@H](Oc2ccc3c(cnn3-c3ccc(F)cc3)c2)[C@H](C)NC(=O)C(C)(C)C)cc1` [Example 188, N-[(1R,2S)-1-[1-(4-fluorophenyl)indazol-5-yl]oxy-1-(4-propylphenyl)propan-2-yl]-2,2-dimethyl-propanamide], the IC50 turned out to be 7.3 nM. Next, `COc1ccc([C@@H](Oc2ccc3c(cnn3-c3ccc(F)cc3)c2)[C@H](C)NC(=O)c2ncc(C)s2)cc1F` [Example 198, N-[(1R,2S)-1-(3-fluoro-4-methoxy-phenyl)-1-[1-(4-fluorophenyl)indazol-5-yl]oxy-propan-2-yl]-5-methyl-1,3-thiazole-2-carboxamide]: 3.8 nM. The figure for `Cc1cc(F)ccc1[C@@H](Oc1ccc2c(cnn2-c2ccc(F)cc2)c1)[C@H](C)NC(=O)C(C)(C)CO` [Example 256, N-[(1R,2S)-1-(4-fluoro-2-methyl-phenyl)-1-[1-(4-fluorophenyl)indazol-5-yl]oxy-propan-2-yl]-3-hydroxy-2,2-dimethyl-propanamide] is 5.3 nM; for `Cc1cc(Cl)ccc1[C@@H](Oc1ccc2c(cnn2-c2ccc(F)cc2)c1)[C@H](C)NC(=O)C(F)(F)F` [Example 169, N-[(1R,2S)-1-(4-chloro-2-methyl-phenyl)-1-[1-(4-fluorophenyl)indazol-5-yl]oxy-propan-2-yl]-2,2,2-trifluoro-acetamide] it is 8.1 nM; for `COc1cccc([C@@H](Oc2ccc3c(cnn3-c3ccc(F)cc3)c2)[C@H](C)NC(=O)C(=O)N(C)C)c1` [Example 80, N-[(1R,2S)-1-[1-(4-Fluorophenyl)indazol-5-yl]oxy-1-(3-methoxyphenyl)propan-2-yl]-N′,N′-dimethyl-oxamide] it is 3.7 nM. Regarding `C[C@H](NC(=O)C(C)(C)C)[C@H](Oc1ccc2c(cnn2-c2ccc(F)cc2)c1)c1ccc(F)c(F)c1` [Example 172, N-[(1R,2S)-1-(3,4-difluorophenyl)-1-[1-(4-fluorophenyl)indazol-5-yl]oxy-propan-2-yl]-2,2-dimethyl-propanamide], the IC50 was 4.3 nM.

In the case of `COc1cccc([C@@H](Oc2ccc3c(cnn3-c3ccc(F)cc3)c2)[C@H](C)NC(=O)c2nccs2)c1` [Example 135, N-[(1R,2S)-1-[1-(4-fluorophenyl)indazol-5-yl]oxy-1-(3-methoxyphenyl)propan-2-yl]1,3-thiazole-2-carboxamide], the IC50 was 3.1 nM. Next, `CSc1ccc([C@@H](Oc2ccc3c(cnn3-c3ccc(F)cc3)c2)[C@H](C)NC(=O)COC(C)=O)cc1` [Example 10, N-[(1R,2S)-1-[1-(4-fluorophenyl)indazol-5-yl]oxy-1-(4-methylsulfanylphenyl)propan-2-yl]carbamoylmethyl acetate]: 2.4 nM. In the case of `Cc1cccc([C@@H](Oc2ccc3c(cnn3-c3ccc(F)cc3)c2)[C@H](C)NC(=O)C(F)(F)F)c1` [Example 24, 2,2,2-trifluoro-N-[(1R,2S)-1-[1(4-fluorophenyl)indazol-5-yl]oxy-1-(3-methylphenyl)propan-2-yl]acetamide], the IC50 turned out to be 3.2 nM. As for `Cc1cc(F)ccc1[C@@H](Oc1ccc2c(cnn2-c2ccc(F)cc2)c1)[C@H](C)NC(=O)C(C)(F)F` [Example 233, 2,2-difluoro-N-[(1R,2S)-1-(4-fluoro-2-methyl-phenyl)-1-[1-(4-fluorophenyl)indazol-5-yl]oxy-propan-2-yl]propanamide], the IC50 was determined as 6.1 nM. With `COCC(=O)N[C@@H](C)[C@H](Oc1ccc2c(cnn2-c2ccc(F)cc2)c1)c1ccc(C)cc1C` [Example 261, N-[(1R,2S)-1-(2,4-dimethylphenyl)-1-[1-(4-fluorophenyl)indazol-5-yl]oxy-propan-2-yl]-2-methoxy-acetamide], the IC50 amounted to 5.7 nM.

Regarding `COC(=O)c1ccc(-n2ncc3cc(O[C@H](c4ccccc4)[C@H](C)NC(=O)c4ccco4)ccc32)cc1` [Example 116, Methyl 4-(5-{(1R,2S)-2-[(2-furylcarbonyl)amino]-1-phenylpropoxy}-1H-indazol-1-yl)benzoate], the IC50 turned out to be 7.7 nM.

One may read the IC50 as the concentration that inhibits the measured activity by half.
